From ChEMBL document CHEMBL5360600, “Optimization of 1,2,4-Triazole-Based p97 Inhibitors for the Treatment of Cancer” (ACS Med Chem Lett, 2023)
In brackets after ≈: the same amount, converted by molar mass. Activity calls are given as the source filed them. The calls are words filed in the database; no cut-off is given here.

Tests used:
[1] = biological target: T1, Transitional endoplasmic reticulum ATPase (Homo sapiens, UniProt P55072); test: Inhibition of p97 (unknown origin) ATPase activity by Biomol Green Reagent based microplate reader analysis
Target sequence in this assay (P55072 whole entry): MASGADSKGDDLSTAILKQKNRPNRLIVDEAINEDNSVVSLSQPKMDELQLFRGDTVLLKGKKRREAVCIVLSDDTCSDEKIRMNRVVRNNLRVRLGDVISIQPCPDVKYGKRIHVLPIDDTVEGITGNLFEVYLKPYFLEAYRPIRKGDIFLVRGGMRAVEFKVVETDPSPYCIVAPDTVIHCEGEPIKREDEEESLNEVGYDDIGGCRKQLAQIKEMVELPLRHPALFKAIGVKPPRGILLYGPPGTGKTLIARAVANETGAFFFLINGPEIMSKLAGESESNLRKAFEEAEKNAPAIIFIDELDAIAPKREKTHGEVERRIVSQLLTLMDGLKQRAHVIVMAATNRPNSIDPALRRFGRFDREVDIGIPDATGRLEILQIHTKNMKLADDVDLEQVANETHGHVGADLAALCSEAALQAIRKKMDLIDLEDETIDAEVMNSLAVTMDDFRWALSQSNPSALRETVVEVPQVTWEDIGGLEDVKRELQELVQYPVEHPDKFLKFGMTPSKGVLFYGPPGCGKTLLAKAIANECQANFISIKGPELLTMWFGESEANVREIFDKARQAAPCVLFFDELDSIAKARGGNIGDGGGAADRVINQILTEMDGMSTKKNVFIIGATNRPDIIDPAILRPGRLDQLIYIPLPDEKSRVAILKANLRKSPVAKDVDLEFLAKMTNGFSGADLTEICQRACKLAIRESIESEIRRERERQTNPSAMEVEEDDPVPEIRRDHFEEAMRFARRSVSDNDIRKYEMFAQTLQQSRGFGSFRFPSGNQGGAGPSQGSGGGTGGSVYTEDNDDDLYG

[2] = biological target: T1, Transitional endoplasmic reticulum ATPase; test: Inhibition of p97 in human HeLa cells expressing UbG76V-GFP/ODD-Luc assessed as accumulation of Ub-GFP incubated for 6 hrs by confocal microscopic analysis; assay type: cell-based
Target sequence in this assay (P55072 whole entry): as above

[3] = test system: HCT-116; test: Cytotoxicity against human HCT-116 cells assessed as reduction in cell viability incubated for 48 hrs by celltiter glo-luminescent assay; assay type: functional, cell-based; conditions: HCT-116, 48 h
[4] = biological target: T1, Transitional endoplasmic reticulum ATPase; test: Inhibition of p97 in human HCT-116 cells assessed as increase in Ub-K48 level at 100 nM incubated for 6 hrs by quantitative sandwich immunoassay method relative to control; assay type: cell-based
Target sequence in this assay (P55072 2-806 limits assumed): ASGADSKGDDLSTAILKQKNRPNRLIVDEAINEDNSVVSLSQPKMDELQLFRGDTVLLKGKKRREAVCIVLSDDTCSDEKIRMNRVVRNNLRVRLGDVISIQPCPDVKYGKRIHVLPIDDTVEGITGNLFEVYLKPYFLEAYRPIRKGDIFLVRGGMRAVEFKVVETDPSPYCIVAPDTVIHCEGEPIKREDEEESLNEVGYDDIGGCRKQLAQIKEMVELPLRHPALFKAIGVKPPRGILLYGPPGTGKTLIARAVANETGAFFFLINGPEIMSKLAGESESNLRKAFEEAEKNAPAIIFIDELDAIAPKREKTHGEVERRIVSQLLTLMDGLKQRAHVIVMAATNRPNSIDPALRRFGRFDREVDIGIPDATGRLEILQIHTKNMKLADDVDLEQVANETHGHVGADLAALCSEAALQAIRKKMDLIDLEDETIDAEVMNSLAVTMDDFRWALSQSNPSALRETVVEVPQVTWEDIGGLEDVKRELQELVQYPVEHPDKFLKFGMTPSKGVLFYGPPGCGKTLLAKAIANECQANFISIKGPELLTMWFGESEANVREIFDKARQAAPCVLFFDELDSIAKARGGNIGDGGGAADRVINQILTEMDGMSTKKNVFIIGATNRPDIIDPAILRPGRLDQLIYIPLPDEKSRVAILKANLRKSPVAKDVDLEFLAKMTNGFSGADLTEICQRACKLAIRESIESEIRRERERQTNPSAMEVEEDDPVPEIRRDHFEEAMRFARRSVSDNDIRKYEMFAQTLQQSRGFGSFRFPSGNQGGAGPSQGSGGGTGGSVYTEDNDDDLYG

[5] = Solubility of compound in PBS incubated for 30 minutes by clear-bottomed UV analysis; assay type: physicochemical
[6] = Metabolic stability in mouse liver microsome assessed as half life at 1 uM incubated upto 45 mins in presence of NADPH-regenerating system by LC-MS analysis; assay type: ADME; conditions: liver microsomes
[7] = Solubility of compound at pH 7.4 in PBS by UV/visible spectrophotometer analysis; assay type: physicochemical
[8] = AUClast in CD-1 mouse at 50 mg/kg, po incubated upto 24 hrs by LC-MS/MS analysis; assay type: ADME, organism-based; set-up: time < 24 hrs, dose 50 mg/kg, route po; conditions: in vivo
[9] = Half life in CD-1 mouse at 5 mg/kg, iv incubated upto 24 hrs by LC-MS/MS analysis; assay type: ADME, organism-based; conditions: in vivo
[10] = AUClast in CD-1 mouse at 5 mg/kg, iv incubated upto 24 hrs by LC-MS/MS analysis; assay type: ADME, organism-based; set-up: dose 5 mg/kg, time < 24 hrs, route iv; conditions: in vivo
[11] = Cmax in CD-1 mouse at 50 mg/kg, ip incubated upto 24 hrs by LC-MS/MS analysis; assay type: ADME, organism-based; set-up: time < 24 hrs, dose 50 mg/kg, route ip; conditions: in vivo
[12] = Oral bioavailability in CD-1 mouse at 50 mg/kg incubated upto 24 hrs by LC-MS/MS analysis; assay type: ADME, organism-based; conditions: in vivo
[13] = Volume of distribution at steady state in CD-1 mouse at 5 mg/kg, iv incubated upto 24 hrs by LC-MS/MS analysis; assay type: ADME, organism-based; conditions: in vivo, read-out: Vdss
[14] = Clearance in CD-1 mouse at 5 mg/kg, iv incubated upto 24 hrs by LC-MS/MS analysis; assay type: ADME, organism-based; conditions: in vivo
[15] = biological target: T1, Transitional endoplasmic reticulum ATPase; test: Inhibition of p97 in human HCT-116 cells assessed as increase in caspase-3 level at 1 uM incubated for 24 hrs by quantitative sandwich immunoassay method relative to control; assay type: cell-based
Target sequence in this assay (P55072 2-806 limits assumed): as above

[16] = AUClast in CD-1 mouse at 50 mg/kg, ip incubated upto 24 hrs by LC-MS/MS analysis; assay type: ADME, organism-based; set-up: time < 24 hrs, dose 50 mg/kg, route ip; conditions: in vivo
[17] = Half life in CD-1 mouse at 50 mg/kg, ip incubated upto 24 hrs by LC-MS/MS analysis; assay type: ADME, organism-based; conditions: in vivo
[18] = Cmax in CD-1 mouse at 50 mg/kg, po incubated upto 24 hrs by LC-MS/MS analysis; assay type: ADME, organism-based; set-up: dose 50 mg/kg, time < 24 hrs, route po; conditions: in vivo
[19] = Half life in CD-1 mouse at 50 mg/kg, po incubated upto 24 hrs by LC-MS/MS analysis; assay type: ADME, organism-based; conditions: in vivo
[20] = biological target: T1, Transitional endoplasmic reticulum ATPase; test: Inhibition of p97 in human HCT-116 cells assessed as increase in caspase-3 level at 0.04 to 6 uM pretreated for 2 hrs followed by washout and measured after 6 to 24 hrs by quantitative sandwich immunoassay method; assay type: cell-based; conditions: dose 0.04-6 µM
Target sequence in this assay (P55072 2-806 limits assumed): as above

SMILES	IC50 [1]	EC50 [2]	IC50 [3]	solubility at 0.5 h [5]	half-life at […], 1 µM [6]	also measured
CN1CCC(NC(=O)OCC#Cc2c(F)cc(OCc3nnc(SC4C=CCCC4)n3-c3cccnc3)cc2F)CC1 (centres undefined)	11 nM	360 nM	730 nM			inhibition [4]: 123%
Cc1cc(OCc2nnc(SC3CCCC=C3F)n2-c2cccnc2)ccc1-c1ccc(S(C)(=O)=O)cc1 (centres undefined)	320 nM	> 40000 nM		9 µM (≈ 4.96 µg/mL)	13 min	
Cc1cc(OCc2nnc(SC3C=CCCC3)n2-c2cccnc2)ccc1C#CCOC(=O)N1CCN(C)CC1 (centres undefined)	29 nM	1800 nM	2400 nM		< 10 min	
Cc1cc(OCc2nnc(SC3CCNCC3)n2-c2cccnc2)ccc1-c1ccc(S(C)(=O)=O)cc1	> 6000 nM	> 40000 nM		370 µM (≈ 198 µg/mL)	> 60 min	
Cc1cc(OCc2nnc(SC3C=CCCC3)n2-c2cccnc2)ccc1C#CCN (centres undefined)		4500 nM		53 µM (≈ 22.9 µg/mL)	24 min	
Cc1cc(OCc2nnc(SC3C=CCCC3)n2-c2cccnc2)ccc1C#CCO (centres undefined)	40 nM	1300 nM	4700 nM	39 µM (≈ 16.9 µg/mL)	1.2 min	solubility [7]: 39 µM (≈ 16.9 µg/mL)
CCC(=O)NCC#Cc1ccc(OCc2nnc(SC3C=CCCC3)n2-c2cccnc2)cc1C (centres undefined)	32 nM	1900 nM				
CN1CCC(NC(=O)OCC#Cc2ccc(OCc3nnc(SC4C=CCCC4)n3-c3cccnc3)c(F)c2F)CC1 (centres undefined)		1300 nM	3200 nM		8 min	solubility [7]: 54 µM (≈ 32.1 µg/mL)
Cc1cc(OCc2nnc(SC3C=CCCC3)n2-c2cccnc2)ccc1C#CCOC(=O)NC1CCN(C)CC1 (centres undefined)	23 nM	820 nM	2100 nM	61 µM (≈ 34.9 µg/mL)	7 min	solubility [7]: 61 µM (≈ 34.9 µg/mL)
Cc1cc(OCc2nnc(SC3C=CCCC3)n2-c2cccnc2)ccc1C#CCNC1CCN(C)CC1 (centres undefined)	41 nM	1500 nM		130 µM (≈ 68.7 µg/mL)	8 min	
Cc1cc(OCc2nnc(SC3C=CCCC3)n2-c2cccnc2)ccc1C#CCOC(=O)NCCN1CCN(C)CC1 (centres undefined)	21 nM	890 nM	2800 nM		8 min	
Cc1cc(OCc2nnc(SC3CCCCC3)n2-c2cccnc2)ccc1-c1ccc(S(C)(=O)=O)cc1	60 nM	2400 nM		170 µM (≈ 90.9 µg/mL)	8 min	
COCCSc1nnc(COc2ccc(-c3ccc(S(C)(=O)=O)cc3)c(C)c2)n1-c1cccnc1	2010 nM	> 40000 nM		260 µM (≈ 133 µg/mL)	13 min	
Cc1cc(OCc2nnc(SC3C=CCCC3)n2-c2cccnc2)ccc1C#CCNS(C)(=O)=O (centres undefined)		2700 nM			7 min	
CN1CCC(NC(=O)OCC#Cc2cc(F)c(OCc3nnc(S[C@H]4C=CCCC4)n3-c3cccnc3)cc2F)CC1			340 nM		5 min	AUC(0-t) at 24 h [8]: 601 ng·h/mL; solubility [7]: 74 µM (≈ 44 µg/mL); half-life [9]: 41.4 min; AUC(0-t) at 24 h [10]: 371 ng·h/mL; Cmax [11]: 12700 ng/mL; bioavailability [12]: 17%; Vd [13]: 5.9 L/kg; clearance [14]: 234 mL/min/kg; inhibition [15]: Active; AUC(0-t) at 24 h [16]: 9290 ng·h/mL; half-life [17]: 96 min; Cmax [18]: 366 ng/mL; half-life [19]: 126 min; inhibition [20]: Active
Cc1cc(OCc2nnc(SC3CCOCC3)n2-c2cccnc2)ccc1-c1ccc(S(C)(=O)=O)cc1	460 nM	47000 nM		150 µM (≈ 80.5 µg/mL)	< 10 min	
[2H]C1([2H])C([2H])([2H])C([2H])([2H])C([2H])(Sc2nnc(COc3ccc(-c4ccc(S(C)(=O)=O)cc4)c(C)c3)n2-c2cccnc2)C1([2H])[2H]				29 µM (≈ 15.4 µg/mL)	6 min	
[2H]C1([2H])C([2H])([2H])C([2H])([2H])C([2H])(Sc2nnc(COc3cc(F)c(C#CCOC(=O)NC4CCN(C)CC4)cc3F)n2-c2cccnc2)C1([2H])[2H]	9.7 nM	640 nM	1370 nM		8 min	solubility [7]: 83 µM (≈ 49.1 µg/mL)
Cc1cc(OCc2nnc(SC3C=CCCC3)n2-c2cccnc2)ccc1-c1ccc(S(C)(=O)=O)cc1 (centres undefined)	34 nM	940 nM		140 µM (≈ 74.6 µg/mL)	< 10 min	
CN1CCN(CCNC(=O)OCC#Cc2ccc(OCc3nnc(SC4C=CCCC4)n3-c3cccnc3)cc2F)CC1 (centres undefined)		820 nM	1350 nM		4 min	solubility [7]: 60 µM (≈ 36.3 µg/mL)
Cc1cc(OCc2nnc(SC3CCC(F)(F)CC3)n2-c2cccnc2)ccc1-c1ccc(S(C)(=O)=O)cc1	300 nM	> 40000 nM		110 µM (≈ 62.8 µg/mL)	< 10 min	
CN1CCC(NC(=O)OCC#Cc2cc(F)c(OCc3nnc(SC4C=CCCC4)n3-c3cccnc3)cc2F)CC1 (centres undefined)			850 nM		3 min	solubility [7]: 71 µM (≈ 42.2 µg/mL); inhibition [4]: 133%
Cc1cc(OCc2nnc(SC3CCCC3)n2-c2cccnc2)ccc1-c1ccc(S(C)(=O)=O)cc1					9 min	
Cc1cc(OCc2nnc(SC3C=CCCC3)n2-c2cccnc2)ccc1C#CCNS(=O)(=O)c1ccc(F)cc1 (centres undefined)		> 40000 nM		24 µM (≈ 14.2 µg/mL)	9 min	
CN1CCC(NC(=O)OCC#Cc2cc(F)c(OCc3nnc(S[C@@H]4C=CCCC4)n3-c3cccnc3)cc2F)CC1			4740 nM			
Cc1cc(OCc2nnc(SC3C=CCCC3)n2-c2cccnc2)ccc1C#CCNC(C)C (centres undefined)		2700 nM			8 min	
Cc1cc(OCc2nnc(SC3C=CCCC3)n2-c2cccnc2)ccc1C#CCNC(=O)OC(C)(C)C (centres undefined)	150 nM	11000 nM		92 µM (≈ 48.9 µg/mL)	7 min	
